According to article PMC10394516, “The pharmacokinetic profile of brensocatib and its effect on pharmacodynamic biomarkers including NE, PR3, and CatG in various rodent species” (Frontiers in Pharmacology, 2023):
Where two headings read alike, the source gives them in different places.

Test: Plasma PK of brensocatib, BID vs QD oral dosing, BALB/c mice
Type: in vivo
Conditions: for half-life / AUC(0-t): both sexes, BALB/c, mouse, po
Procedure: A dose frequency study was performed in male and female mice (C57BL/6 & BALB/c) and in male and female rats (Sprague Dawley & Wistar) investigating twice daily (BID) versus once daily (QD) brensocatib administration.
Briefly, animals were weighed and randomized into different treatment groups. In total, three different dosing levels of brensocatib were tested in each species and strain; each QD dosing level was equivalent to 1.5-times the matching daily BID dose. For BID dosing, the second daily dose was administered 8-h post the morning dose. C57BL/6 mice were dosed either BID or QD for 7 consecutive days at 0/0, 0.5/0.75, 2/3, and 20/30 mg/kg/day (BID/QD). BALB/c mice were dosed for 7 consecutive days at 0/0, 0.2/0.3, 2/3, and 20/30 mg/kg/day (BID/QD). SD rats were dosed for 9 consecutive days at 0/0, 0.2/0.3, 2/3, and 20/30 mg/kg/day (BID/QD). Wistar rats were dosed for 7 consecutive days at 0/0, 0.2/0.3, 2/3, and 20/30 mg/kg/day (BID/QD).
For sparse PK analysis via LC-MS/MS, plasma was collected from animals during the first 24 h of dosing at prescribed timepoints. The timepoints included 1, 3, 8, and 24 h post initial dose for QD groups, and 1, 3, 8, 9, 11, and 24 h post initial dose for BID groups. Note that the 8- and 24-h plasma samples were prior to the afternoon dose for BID groups and prior to the second day dose for all groups, respectively. See section Quantification of Plasma Brensocatib Concentrations for details.
Blood was collected via the tail-vein technique and centrifuged to separate and collect the plasma. The resulting plasma samples were stored at −20°C or lower until LC-MS/MS analysis.
The plasma concentration of brensocatib was quantified by liquid chromatography, tandem mass spectrometry (LC-MS/MS), a Sciex API6500 mass spectrometer (SCIEX, Framingham, MA). Two brensocatib stock solutions were prepared, one for the preparation of the 8-point standard (STD) curve spiking solutions and the other for the preparation of the quantitative control spiking solutions (QCs) at three levels. The STD curve and QCs were prepared by 2% spiking from the spiking solutions into mouse or rat plasma. The samples were extracted using a protein precipitation method, where 10 µL of sample was mixed with 100 µL of internal standard working solution (100 ng/mL ^6C13-brensocatib in methanol), vortexed for 5 s, and centrifuged at 21,130 × g at 4°C for 15 min. The supernatant was mixed with an equal volume of water and 10 μL was injected into a Phenomenex Kinetex Biphenyl column (3.0 mm × 50 mm; 2.6 μm; 65°C; 0.8 mL/min) with an elution gradient consisting of mobile phase A (10 mM ammonium formate) and mobile phase B (methanol) over 2 min from 5% to 95% B. The mass spectrometer was equipped with an atmospheric-pressure chemical ionization source operating in positive mode.
Individual plasma concentrations were plotted and the area under the curve (AUC) was calculated using the trapezoid method. The elimination rate constant (k e ) was calculated as the negative natural log of the plasma concentration over time (Eq. 1) starting at the max concentration (C max) after the most recent dose to the last measurable plasma concentration between doses. The calculated k e was used to define the half-life (t 1/2 ) based on Eq. 2; where 0.693 is the natural log of 2 and assumes a first-order reaction. ke=−ln∆C/∆t (1) t1/2=0.693/ke (2)

Cn1c(=O)oc2ccc(-c3ccc(C[C@@H](C#N)NC(=O)[C@@H]4CNCCCO4)cc3)cc21 [brensocatib]
half-life (0.2 mg/kg/day, oral BID, 0.2 mg/kg/day, evening dose, read-out: t1/2, PM dose (converted)): 0.67 ± 0.04 h
AUC(0-t) (0.2 mg/kg/day, oral BID, 0.2 mg/kg/day, first 24 h, read-out: AUC0–24h): 124 ± 31 ng·h/mL
AUC(0-t) (0.2 mg/kg/day, oral BID, 0.2 mg/kg/day, first 24 h, read-out: AUC(0–24)): 0.29 ± 0.07 µM·h
half-life (0.2 mg/kg/day, oral BID, 0.2 mg/kg/day, morning dose, read-out: t1/2, AM dose (converted)): 1.58 ± 0.72 h
AUC(0-t) (0.3 mg/kg/day, oral QD, 0.3 mg/kg/day, first 24 h, read-out: AUC0–24h): 188 ± 31 ng·h/mL
AUC(0-t) (0.3 mg/kg/day, oral QD, 0.3 mg/kg/day, first 24 h, read-out: AUC(0–24)): 0.45 ± 0.07 µM·h
half-life (0.3 mg/kg/day, oral QD, 0.3 mg/kg/day, read-out: t1/2, AM dose (converted)): 0.97 ± 0.03 h
half-life (2 mg/kg/day, oral BID, 2 mg/kg/day, evening dose, read-out: t1/2, PM dose (converted)): 1.19 ± 0.34 h
AUC(0-t) (2 mg/kg/day, oral BID, 2 mg/kg/day, first 24 h, read-out: AUC0–24h): 1510 ± 395 ng·h/mL
AUC(0-t) (2 mg/kg/day, oral BID, 2 mg/kg/day, first 24 h, read-out: AUC(0–24)): 3.59 ± 0.94 µM·h
half-life (2 mg/kg/day, oral BID, 2 mg/kg/day, morning dose, read-out: t1/2, AM dose (converted)): 3.22 ± 0.35 h
AUC(0-t) (3 mg/kg/day, oral QD, 3 mg/kg/day, first 24 h, read-out: AUC0–24h): 2960 ± 679 ng·h/mL
AUC(0-t) (3 mg/kg/day, oral QD, 3 mg/kg/day, first 24 h, read-out: AUC(0–24)): 7.04 µM·h
half-life (3 mg/kg/day, oral QD, 3 mg/kg/day, read-out: t1/2, AM dose (converted)): 0.83 ± 0.03 h
half-life (20 mg/kg/day, oral BID, 20 mg/kg/day, evening dose, read-out: t1/2, PM dose (converted)): 1.88 ± 0.06 h
AUC(0-t) (20 mg/kg/day, oral BID, 20 mg/kg/day, first 24 h, read-out: AUC0–24h): 24100 ng·h/mL
AUC(0-t) (20 mg/kg/day, oral BID, 20 mg/kg/day, first 24 h, read-out: AUC(0–24)): 57.3 ± 11.4 µM·h
half-life (20 mg/kg/day, oral BID, 20 mg/kg/day, morning dose, read-out: t1/2, AM dose (converted)): 2.47 ± 0.31 h
AUC(0-t) (30 mg/kg/day, oral QD, 30 mg/kg/day, first 24 h, read-out: AUC0–24h): 56300 ng·h/mL
AUC(0-t) (30 mg/kg/day, oral QD, 30 mg/kg/day, first 24 h, read-out: AUC(0–24)): 134 ± 41.1 µM·h
half-life (30 mg/kg/day, oral QD, 30 mg/kg/day, read-out: t1/2, AM dose (converted)): 2.56 ± 0.14 h
AUC(0–24) (oral QD, 3 mg/kg/day, first 24 h): 7.05 ± 1.61 µM·h
